Data on 17 molecules can be found in patent publication US20130217664A1, “NOVEL COMPOUNDS USEFUL FOR THE TREATMENT OF DEGENERATIVE AND INFLAMMATORY DISEASES” (priority 2012, published 2013).

As a reminder, the pIC50 is the negative decadic logarithm of the IC50, by convention in mol/L.

pIC50: −log10 of the molar value.

Common to all, as to type: biochemical
One experiment concerns the target T1, human JAK3 (Homo sapiens, UniProt P52333).
T1 construct: catalytic domain (amino acids 781-1124; catalog number PV3855); purchased Invitrogen PV3855
Description: JAK3 inhibition assay. The following applies: recombinant human JAK3 catalytic domain; polyGT substrate. The protocol: 1.3 JAK3 Inhibition Assay
0.5 ng JAK3 protein was incubated with 2.5 μg polyGT substrate (Sigma catalog number P0275) in kinase reaction buffer (25 mM Tris pH 7.5, 0.5 mM EGTA, 10 mM MgCl2, 2.5 mM DTT, 0.5 mM Na3VO4, 5 mM b-glycerolphosphate, 0.01% Triton X-100, 1 μM non-radioactive ATP, 0.25 μCi 33P-gamma-ATP (GE Healthcare, catalog number AH9968) final concentrations) with or without 5 μL containing test compound or vehicle (DMSO, 1% final concentration), in a total volume of 25 μL, in a polypropylene 96-well plate (Greiner, V-bottom). After 45 min at 30° C., reactions were stopped by adding 25 μL/well of 150 mM phosphoric acid. […] Plates were washed 6 times with 300 μL per well of a 75 mM phosphoric acid solution and the bottom of the plates was sealed. 40 μL/well of Microscint-20 was added, the top of the plates was sealed and readout was performed using the Topcount (Perkin Elmer). Kinase activity was calculated by subtracting counts per min (cpm) obtained in the presence of a positive control inhibitor (10 μM staurosporine) from cpm obtained in the presence of vehicle. The ability of a test compound to inhibit this activity was determined as:
(§1) Percentage inhibition=((cpm determined for sample with test compound present−cpm determined for sample with positive control inhibitor)divided by(cpm determined in the presence of vehicle−cpm determined for sample with positive control inhibitor))*100.
Dose dilution series were prepared for the compounds enabling the testing of dose-response effects in the JAK3 assay and the calculation of the IC50 for each compound. Each compound was routinely tested at concentration of 20 μM followed by a 1/5 serial dilution, 10 points in a final concentration of 1% DMSO.

The next experiment concerns the target T2, human JAK2 (Homo sapiens, UniProt O60674).
T2 construct: catalytic domain (amino acids 808-1132; catalog number PV4210); GST; purchased Invitrogen PV4210
Description: JAK2 inhibition assay (polyGT substrate / Ulight-JAK1 peptide). The following applies: recombinant human JAK2 catalytic domain; polyGT or Ulight-JAK1 peptide assay. In short, it runs like this:
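Radiometric: 0.025 mU JAK2 with 2.5 μg polyGT, 1 μM ATP plus ^33P-ATP in MOPS pH 7.5 buffer, 1% DMSO, 90 min at 30° C.; filter counting. Alternative TR-FRET format with Ulight-JAK1 peptide, 60 min at room temperature, Eu-anti-phosphotyrosine detection.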

Another experiment concerns the target T3, human JAK1 (Homo sapiens, UniProt P23458).
T3 construct: catalytic domain, amino acids 866-1154; catalog number PV4774; purchased Invitrogen PV4774
Description: JAK1 inhibition assay (polyGT substrate / Ulight-JAK1 peptide). The following applies: recombinant human JAK1 catalytic domain; polyGT or Ulight-JAK1 peptide assay. The method, boiled down:
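Two formats. PolyGT radiometric: 45 min at 30 °C, stopped with phosphoric acid, counted as cpm. Ulight-JAK1 peptide: 60 min at room temperature, stopped with Eu-anti-phosphotyrosine/EDTA, read as RFU. Percent inhibition normalised to vehicle and 10 μM staurosporine.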

A further experiment concerns the target T4, human TYK2 (Homo sapiens, UniProt P29597).
T4 construct: catalytic domain (amino acids 871-1187; catalog number 08-147); purchased Carna Biosciences 08-147
T4 sequence (P29597 871-1187): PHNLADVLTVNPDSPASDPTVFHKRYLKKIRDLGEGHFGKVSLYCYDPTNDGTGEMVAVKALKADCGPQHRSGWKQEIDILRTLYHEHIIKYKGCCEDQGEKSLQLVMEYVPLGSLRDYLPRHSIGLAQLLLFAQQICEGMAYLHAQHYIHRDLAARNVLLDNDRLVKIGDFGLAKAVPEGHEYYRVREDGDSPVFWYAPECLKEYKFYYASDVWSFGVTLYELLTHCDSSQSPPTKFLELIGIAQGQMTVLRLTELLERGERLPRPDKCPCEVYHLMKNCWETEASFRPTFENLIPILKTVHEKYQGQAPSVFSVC
Description: TYK2 inhibition assay. As to conditions: recombinant human TYK2 catalytic domain, polyGT substrate. The protocol:
1.4 TYK2 Inhibition Assay
After 90 min at 30° C., reactions were stopped by adding 25 μL/well of 150 mM phosphoric acid. […] Plates were washed 6 times with 300 μL per well of a 75 mM phosphoric acid solution and the bottom of the plates was sealed. 40 μL/well of Microscint-20 was added, the top of the plates was sealed and readout was performed using the Topcount (Perkin Elmer). Kinase activity was calculated by subtracting counts per min (cpm) obtained in the presence of a positive control inhibitor (10 μM staurosporine) from cpm obtained in the presence of vehicle. The ability of a test compound to inhibit this activity was determined as:
as §1
Dose dilution series were prepared for the compounds enabling the testing of dose-response effects in the TYK2 assay and the calculation of the IC50 for each compound.

T1 sequence (P52333 781-1124): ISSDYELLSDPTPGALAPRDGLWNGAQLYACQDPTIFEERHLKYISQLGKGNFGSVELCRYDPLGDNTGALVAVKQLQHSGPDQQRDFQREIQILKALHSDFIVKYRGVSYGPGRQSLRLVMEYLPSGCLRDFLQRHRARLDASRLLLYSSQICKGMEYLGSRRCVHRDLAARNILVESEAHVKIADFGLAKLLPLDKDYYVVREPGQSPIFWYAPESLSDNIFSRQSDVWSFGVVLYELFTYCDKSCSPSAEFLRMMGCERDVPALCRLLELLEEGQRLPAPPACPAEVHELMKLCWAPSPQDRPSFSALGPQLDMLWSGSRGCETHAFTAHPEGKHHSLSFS
T3 sequence (P23458 866-1154): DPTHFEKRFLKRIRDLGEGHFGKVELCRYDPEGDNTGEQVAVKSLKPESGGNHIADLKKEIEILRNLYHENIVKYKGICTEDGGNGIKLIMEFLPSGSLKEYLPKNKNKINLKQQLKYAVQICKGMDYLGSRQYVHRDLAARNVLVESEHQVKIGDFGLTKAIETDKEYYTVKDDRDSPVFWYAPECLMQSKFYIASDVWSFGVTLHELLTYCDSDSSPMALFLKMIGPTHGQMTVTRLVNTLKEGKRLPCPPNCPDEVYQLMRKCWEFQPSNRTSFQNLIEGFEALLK
T2 sequence (O60674 808-1132): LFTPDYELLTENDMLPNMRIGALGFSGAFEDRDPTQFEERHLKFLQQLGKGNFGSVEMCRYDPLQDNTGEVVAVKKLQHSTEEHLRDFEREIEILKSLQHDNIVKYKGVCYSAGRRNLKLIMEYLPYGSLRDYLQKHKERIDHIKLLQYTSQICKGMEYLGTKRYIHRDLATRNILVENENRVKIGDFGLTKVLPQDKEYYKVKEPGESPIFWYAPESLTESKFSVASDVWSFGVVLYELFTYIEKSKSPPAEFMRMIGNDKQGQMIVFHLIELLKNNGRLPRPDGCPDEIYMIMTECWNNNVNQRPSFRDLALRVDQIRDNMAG

As to `CN(c1cc2c(cn1)ncn2C)c1ccccc1Cl` [Compound 68, N-(2-Chlorophenyl)-N,1-dimethyl-1H-imidazo[4,5-c]pyridin-6-amine], the pIC50 at human JAK3 is < 6.00; at human JAK2 it was < 6.00; on human JAK1, 6.30 to 7.00; on human TYK2, 6.00 to 6.30.
With `Cc1cc(OCc2ccc(C#N)nc2)ccc1N(C)c1cc2c(cn1)ncn2C` [Compound 89, 5-((3-methyl-4-(methyl(1-methyl-1H-imidazo[4,5-c]pyridin-6-yl)amino)phenoxy)methyl) picolinonitrile], the pIC50 was < 6.00 at human JAK3, < 6.00 at human JAK2, 6.30 to 7.00 on human JAK1 and < 6.00 at human TYK2.
In the case of `Cc1ccc(OCc2ccc(C#N)nc2)cc1N(C)c1cc2c(cn1)ncn2C` [Compound 92, 5-((4-methyl-3-(methyl(1-methyl-1H-imidazo[4,5-c]pyridin-6-yl)amino)phenoxy)methyl) picolinonitrile], the pIC50 on human JAK3 was < 6.00; on human JAK2, < 6.00; at human JAK1, 7.00 to 11.00; on human TYK2 it was < 6.00.
In the case of `CCc1cc(OCC(N)=O)ccc1N(C)c1cc2c(cn1)ncn2C` [Compound 299], the pIC50 was < 6.00 on human JAK3, 6.30 to 7.00 at human JAK2, 7.00 to 11.00 at human JAK1 and 6.30 to 7.00 on human TYK2.
As for `CCc1cc(CNC2CCS(=O)(=O)C2)ccc1N(C)c1cc2c(cn1)ncn2C` (centres unmarked) [Compound 300, {4-[(1,1-Dioxo-tetrahydro-thiophen-3-ylamino)-methyl]-2-ethyl-phenyl}-methyl-(1-methyl-1H-imidazo[4,5-c]pyridin-6-yl)-amine], the negative logarithm of the IC50 (pIC50) was < 6.00 on human JAK3, 6.30 to 7.00 on human JAK2, 7.00 to 11.00 at human JAK1 and 6.00 to 6.30 on human TYK2.
For `CCc1cc(-c2ccc(C#N)s2)ncc1N(C)c1cc2c(cn1)ncn2C` [Compound 301, 5-{4-Ethyl-5-[methyl-(1-methyl-1H-imidazo[4,5-c]pyridin-6-yl)-amino]-pyridin-2-yl}-thiophene-2-carbonitrile], in that order: 7.00 to 11.00, 7.00 to 11.00, 7.00 to 11.00 and 7.00 to 11.00.
For `CCn1nc(C)cc1N(C)c1cc2c(cn1)ncn2C` [Compound 305, (2-Ethyl-5-methyl-2H-pyrazol-3-yl)-methyl-(1-methyl-1H-imidazo[4,5-c]pyridin-6-yl)-amine] the same measures were < 6.00, < 6.00, < 6.00 and < 6.00.
For `CN(c1cc2c(cn1)ncn2C)c1cc(C2CC2)nn1C` [Compound 306, (5-Cyclopropyl-2-methyl-2H-pyrazol-3-yl)-methyl-(1-methyl-1H-imidazo[4,5-c]pyridin-6-yl)-amine] the same measures were < 6.00, < 6.00, < 6.00 and < 6.00.
Turning to `CCc1cn(C2(CC#N)CN(C(=O)OC(C)(C)C)C2)nc1N(C)c1cc2c(cn1)ncn2C` [Compound 308, 3-Cyanomethyl-3-{4-ethyl-3-[methyl-(1-methyl-1H-imidazo[4,5-c]pyridin-6-yl)-amino]-pyrazol-1-yl}-azetidine-1-carboxylic acid tert-butyl ester], the pIC50 at human JAK3, on human JAK2, at human JAK1 and at human TYK2 was < 6.00 in each case.
`CCc1cn(C2(CC#N)CNC2)nc1N(C)c1cc2c(cn1)ncn2C` [Compound 309, (3-{4-Ethyl-3-[methyl-(1-methyl-1H-imidazo[4,5-c]pyridin-6-yl)-amino]-pyrazol-1-yl}-azetidin-3-yl)-acetonitrile]: the pIC50 on human JAK3, at human JAK2, on human JAK1 and at human TYK2 was < 6.00 throughout.
Take `CCc1cn(C2(CC#N)CN(S(C)(=O)=O)C2)nc1N(C)c1cc2c(cn1)ncn2C` [Compound 310, (3-{4-Ethyl-3-[methyl-(1-methyl-1H-imidazo[4,5-c]pyridin-6-yl)-mino]-pyrazol-1-yl}-1-methanesulfonyl-azetidin-3-yl)-acetonitrile]: the pIC50 on human JAK3, at human JAK2, on human JAK1 and on human TYK2 was < 6.00 in each case.
Turning to `CCc1cc(CN(C)S(C)(=O)=O)ncc1N(C)c1cc2c(cn1)ncn2C` [Compound 317, N-{4-Ethyl-5-[methyl-(1-methyl-1H-imidazo[4,5-c]pyridin-6-yl)-amino]-pyridin-2-ylmethyl}-N-methyl-methane sulfonamide], the pIC50 on human JAK3 was 7.00 to 11.00; on human JAK2, 6.30 to 7.00; on human JAK1, 7.00 to 11.00; at human TYK2 it was 7.00 to 11.00.
`CCc1cc(N2CCCC2=O)ncc1N(C)c1cc2c(cn1)ncn2C` [Compound 318, 1-{4-Ethyl-5-[methyl-(1-methyl-1H-imidazo[4,5-c]pyridin-6-yl)-amino]-pyridin-2-yl}-pyrrolidin-2-one]: the pIC50 on human JAK3 was < 6.00; at human JAK2, 6.00 to 6.30; at human JAK1 it was 6.30 to 7.00; at human TYK2, < 6.00.
Take `CCc1cc(C#N)c(C(F)(F)F)cc1N(C)c1cc2c(cn1)ncn2C` [Compound 321, 5-Ethyl-4-[methyl-(1-methyl-1H-imidazo[4,5-c]pyridin-6-yl)-amino]-2-trifluoromethyl-benzonitrile]: the negative-log IC50 (pIC50) at human JAK3, on human JAK2, at human JAK1 and at human TYK2 was < 6.00 in each case.
Regarding `CCc1cc(C2CN(C(=O)CC#N)C2)ncc1N(C)c1cc2c(cn1)ncn2C` [Compound 335, 3-(3-{4-Ethyl-5-[methyl-(1-methyl-1H-imidazo[4,5-c]pyridin-6-yl)-amino]-pyridin-2-yl}-azetidin-1-yl)-3-oxo-propionitrile], the pIC50 on human JAK3 was < 6.00; at human JAK2 it was 6.00 to 6.30; on human JAK1, 7.00 to 11.00; on human TYK2, < 6.00.
As for `CCC(=O)N1CC(c2cc(CC)c(N(C)c3cc4c(cn3)ncn4C)cn2)C1` [Compound 336, 1-(3-{4-Ethyl-5-[methyl-(1-methyl-1H-imidazo[4,5-c]pyridin-6-yl)-amino]-pyridin-2-yl}-azetidin-1-yl)-propan-1-one], the pIC50 was < 6.00 on human JAK3, < 6.00 at human JAK2, 7.00 to 11.00 at human JAK1 and < 6.00 on human TYK2.
As for `CCc1cc(C2CN(C(=O)CCC(F)(F)F)C2)ncc1N(C)c1cc2c(cn1)ncn2C` [Compound 338, 1-(3-{4-Ethyl-5-[methyl-(1-methyl-1H-imidazo[4,5-c]pyridin-6-yl)-amino]-pyridin-2-yl}-azetidin-1-yl)-4,4,4-trifluoro-butan-1-one], the pIC50 is < 6.00 at human JAK3, < 6.00 at human JAK2, 6.00 to 6.30 on human JAK1 and < 6.00 at human TYK2.
